What was measured:
Aphidius rhopalosiphi = conditions: not reported; mortality
Apis mellifera = conditions: acute, dermal, mortality
Bibionidae = conditions: chronic/long-term; duration: 26 days
Bird = conditions: acute; oral; unspecified; mortality
Canidae = conditions: chronic; duration: 1 years; Dog Other; body weight
Daphnia magna = conditions: chronic/long-term; duration: 21 days; mobility
Landoltia sp. = conditions: chronic/long-term; biomass
Oryctolagus sp. = conditions: reproduction developmental; body weight
Rattus norvegicus = conditions: for NOAEL: reproduction developmental

SMILES: CC1(C)CC/C(=C\c2ccc(Cl)cc2)C1(O)Cn1cncn1 (stereo not drawn) [Triticonazole]
- LEL (Aphidius rhopalosiphi): 25 g/ha
- LD50 (Apis mellifera): > 156 µg/piece
- LD50 (Apis mellifera; duration: 48 hours): > 100 µg/piece
- NOEC (Bibionidae): 0.0777 mg/L
- LD50 (Bird): > 2000 mg/kg
- NOAEL (Canidae): 2.5 mg/kg-day
- LD50 (Colinus virginianus; acute, oral, diet, mortality): > 693 mg/kg
- NOAEL (Colinus virginianus; reproduction developmental): 19.5 mg/kg-day
- NOEC (Daphnia magna): 0.092 mg/L
- NOEC (Landoltia sp.): 0.33 mg/L
- LC50 (Oncorhynchus mykiss; acute, duration: 96 hours, mortality): > 3.6 µg/mL
- NOEC (Oncorhynchus mykiss; chronic/long-term, duration: 28 days, growth): 0.01 mg/L
- NOAEL (Oryctolagus sp.): 5 mg/kg-day
- LD50 (Rattus norvegicus; acute, mortality): > 2000 mg/kg
- NOAEL (Rattus norvegicus; F): 48 mg/kg-day
- NOAEL (Rattus norvegicus; M): 49 mg/kg-day
- LC50 (Tagia sp.; acute, duration: 14 days, mortality): > 1000 mg/kg
- NOEC (Tagia sp.; chronic/long-term, duration: 56 days, reproduction): 500 mg/kg
